Patent US20260048036A1, “CRYSTALLINE FORMS OF A GLUCOSYLCERAMIDE SYNTHASE INHIBITOR AND USES THEREOF” (ACELINK THERAPEUTICS, INC., priority 2022, published 2026)
Positions count from the first letter of the chain named. Values after ≈ are worked out from the molar mass of the structure shown. Values joined by “and” are separate entries in the source; they are usually repeats but may differ in a detail not shown here. Equal entries are not always repeated.

Legend:
[1] = Solid state stability, 1 week (HPLC purity, color, XRPD); settings: for Bulk (XRPD) / Purity, Bulk (HPLC): Solid state, 1 week; for Purity, Bulk (HPLC): initial purity 99.8%
[2] = Water activity study (Form A + Form C slurry); assay type: physicochemical; settings: ethanol/water mixtures, a.w. 0.2-1.0, 25° C. or 50° C., XRPD of wet cake
Method: Water activity experiments were conducted at 25° C. or 50° C. to determine critical water activity between anhydrate and hydrate. […] The mixtures were stirred at 25° C. or 50° C. for at least 2 days. The obtained solid part (wet cake) was investigated by XRPD.
The results of water activity study in different solvents at 25° C. and 50° C. are shown in Table 10 and Table 11, respectively. The water activity of a binary solvent system was calculated based on UNIFAC method (UNIQUAC Functional-group Activity Coefficients).

[3] = molecular target: T1, Glucosylceramide synthase (GCS) (Homo sapiens, UniProt Q16739); assay: GCS cell-based assay with live K-562 cells; settings: C6-NBD-glucosylceramide by LC-MS/MS
T1 construct: The MDCK, K-562, and L6 cell lines all endogenously express GCS enzyme; host or cells: K-562 human leukemia cells, live
T1 sequence (Q16739 1-394): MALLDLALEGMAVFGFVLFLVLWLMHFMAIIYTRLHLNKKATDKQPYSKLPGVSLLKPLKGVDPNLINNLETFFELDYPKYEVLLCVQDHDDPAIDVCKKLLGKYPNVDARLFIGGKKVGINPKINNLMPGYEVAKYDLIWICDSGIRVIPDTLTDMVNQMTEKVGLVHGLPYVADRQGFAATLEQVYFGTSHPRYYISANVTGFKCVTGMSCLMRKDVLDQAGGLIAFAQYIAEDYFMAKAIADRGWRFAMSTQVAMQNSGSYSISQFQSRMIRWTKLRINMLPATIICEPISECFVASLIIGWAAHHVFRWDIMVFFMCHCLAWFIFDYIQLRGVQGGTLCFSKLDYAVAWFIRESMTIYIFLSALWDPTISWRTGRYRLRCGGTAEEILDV
Source text: (§1) The reaction product, C6-NBD-glucosylceramide, could then be detected and quantified by LC-MS/MS. The inventors used this method to test and validate the effect of various GCS inhibitors on GCS enzyme activity from different species.
(§2) The GCS enzyme activity was detected by using the fluorescent substrate, C6-NBD-ceramide, and monitoring the formation of the fluorescent reaction product, C6-NBD-glucosylceramide. First, the inventors used cell lysate derived from a canine kidney cell line (MDCK, ATCC Cat #CCL-34™) as the source of GCS and tested the inhibitory activity of several control and test compounds.
(§3) The quantitative analysis of C6-NBD-glucosylceramide was performed on a Shimadzu ultra-fast liquid chromatography coupled with API 4000 mass spectrometer. Analyst 1.5 software packages were used to control the LC-MS/MS system, as well as for data acquisition and processing.
The C6-NBD-glucosylceramide reading was normalized first by dividing the peak area of C6-NBD-glucosylceramide with the peak area of the internal standard, and then the amount was calculated according to the standard curve generated in the same assay run. For the cell based assay results, the amount of C6-NBD-glucosylceramide was also normalized by the protein concentration of the cell samples. […]

physchem = settings: thermodynamic from solid
[4] = molecular target: T2, Glucosylceramide synthase (GCS) (Canis lupus familiaris, UniProt A0A8I3MXG6); assay: GCS enzymatic assay with MDCK cell lysate; assay type: biochemical, canine
T2 construct: The MDCK, K-562, and L6 cell lines all endogenously express GCS enzyme; host or cells: MDCK (canine kidney) cell lysate
T2 sequence (A0A8I3MXG6 1-394): T1 sequence (Q16739 1-394) with L20V, Y196S
Source text: as §1, §2
GCS activity was evaluated using a GCS enzyme assay derived from MDCK or L6 cell lysates.
MDCK or L6 cell lysates were prepared using M-PER in the presence of a protease inhibitor cocktail. Each 100 mm dish (100% confluent) was lysed with 250 μl of M-PER containing protease inhibitors. Protein concentration was determined using Pierce BCA protein assay kit.
The final concentration of DMSO was 0.1% in both compound treated and DMSO only treated samples. Each individual reaction was terminated with 11 volumes of methanol:acetonitrile (6:5; containing 200 ng/ml Tolbutamide as internal control). After sufficient mixing, reactions were centrifuged at 2000 rpm for 10 mins, supernatant was injected into the LC-MS/MS for analysis.
as §3
The C6-NBD-glucosylceramide reading was normalized first by dividing the peak area of C6-NBD-glucosylceramide with the peak area of the internal standard, and then the amount was calculated according to the standard curve generated in the same assay run. For the cell based assay results, the amount of C6-NBD-glucosylceramide was also normalized by the protein concentration of the cell samples.
IC50 values were generated from sigmoidal dose-response (variable slope) curves with GraphPad Prism software (GraphPad Software, Inc., San Diego, CA) using the percent inhibition of C6-NBD-glucosylceramide accumulation relative to DMSO control.

[5] = 50 mM acetate buffer, pH 4.5, 37 °C, pH 4.5, aqueous buffer
[6] = 50 mM phosphate buffer, pH 6.8, 37 °C, pH 6.8, aqueous buffer
[7] = 0.1 μM, 60 μg MDCK lysate/reaction, N = 1, N = 2

With `O=C(N[C@H](CN1CCCC1)[C@H](O)c1ccc(OC2CC2)c(Cl)c1)/C(=N/O)c1ccc2cc(Cl)ccc2c1` [Crystalline Form A of Compound 1] the “chemical and physical stability” value ([1]; 25° C./92% RH open container, 40° C./75% RH open container, 60° C. tight container, one week) was “chemically and physically stable”, the “Bulk (XRPD)” value ([1]; 25° C./92% RH, open container) was “No form change” and the “Purity, Bulk (HPLC)” value ([1]; 25° C./92% RH, open container) was 99.8%. The “Bulk (XRPD)” value ([1]; 40° C./75% RH, open container) was “No form change”, the “Purity, Bulk (HPLC)” value ([1]; 40° C./75% RH, open container) was 99.8% and the “Bulk (XRPD)” value ([1]; 60° C., tight container) was “No form change”. The “Purity, Bulk (HPLC)” value ([1]; 60° C., tight container) was 99.8%, the “form stability in water activity study” value [2] was “stable in a wide range of water activity” and the IC50 [3] was 6.15 nM. The solubility at 2 h (physchem; [5]) was 230 µg/mL (≈ 424 µM), the solubility at 24 h (physchem; [5]) was 210 µg/mL (≈ 387 µM) and the solubility at 2 h (physchem; [6]) was 10 µg/mL (≈ 18.4 µM). For the same compound, the solubility at 24 h (physchem; [6]) was 5 µg/mL (≈ 9.22 µM), the solubility at 24 h (physchem; 0.1N HCl, pH 1.2, 37 °C, pH 1.2, simulated gastric fluid) was 970 µg/mL (≈ 1790 µM) and the solubility at 2 h (physchem; FaSSIF-V1, 37 °C, pH 6.5, fassif) was 30 µg/mL (≈ 55.3 µM). It also gave a solubility at 2 h (physchem; FeSSIF-V1, 37 °C, pH 5, fessif) of 1970 µg/mL (≈ 3630 µM), a solubility at 24 h (physchem; FeSSIF-V1, 37 °C, pH 5, fessif) greater than 2000 µg/mL and a solubility at 2 h (physchem; SGF, 37 °C, pH 2, simulated gastric fluid) of 1160 µg/mL (≈ 2140 µM). For the same compound, the “C6-NBD-Ceramide (Normalized to internal control)” value [4, 7] was 5.04 and 4.88, the “C6-NBD-Glucosylceramide Concentration” value [4, 7] was 33.1 nM and 32.5 nM and the Inhibition [4, 7] was 96.72%. For the same compound, the inhibition at 0.1 µM [4, 7] was 96.7% and the IC50 ([4]; MDCK cell lysate as source of GCS, C6-NBD-glucosylceramide by LC-MS/MS) was 7.66 nM.
